Measured values published in a melting point compilation (Tetko et al.; mined from patent text by program, amines drawn as free bases though some values may be those of a salt).

Compound | melting point
Nc1nc2c(Cc3ccsc3)c[nH]c2c(=O)[nH]1 | 222 to 224 °C
CN(CC(=O)C(Cc1cccnc1)NC(=O)c1ccccc1)C(=O)N1CCCC1C(=O)O (stereo unspecified) | 92 to 120 °C
COc1c(Br)c(-c2cc(C(C)C)n(C)n2)cc2oc(=O)c(Cl)c(C)c12 | 165 °C
c1ccc(-c2nnc(-c3ccccc3)c3c2CCCCCC3)cc1 | 163 to 165 °C
CC1(C)CCc2c(N3CCSCC3)nc3sc4c(NCc5cccnc5)ncnc4c3c2C1 | 257 to 258 °C
CCC(OC(C)C)c1cc(C(=O)OC)c(N)cc1C(F)(F)F (stereo unspecified) | 54 to 56 °C
CC(C)N(CCn1c(-c2ccc(O)cc2)cc2c1CCCC2)C(C)C | 112 to 114 °C
OCCc1nccn1CCCc1ccc(OCc2coc(/C=C/c3ccc(F)cc3F)n2)cc1 | 94 to 96 °C
CCCCC(CC)COC(=O)C(=Cc1ccc(-c2nc3ccccc3o2)cc1)C(=O)CC (stereo unspecified) | 82 to 83 °C
CC1(C)OC(=O)C(c2ccc(-c3cscn3)cc2)=C1c1ccc(S(C)(=O)=O)cc1 | 216 °C
N#Cc1cc(NC(=O)c2cc3ccccc3s2)ccc1N1CCN(C2CCOCC2)CC1 | > 285 °C
CCOC(=O)C(C(=O)Nc1nccs1)C(=O)c1cccc(C(F)(F)F)c1NC(=O)C(Cl)C(C)(C)C (stereo unspecified) | 180 °C
CCC(CC)(CC)C(=O)NC(C)(C)CO | 57 to 58 °C
O=C(NCCO)/C(=C/c1ccc(C(F)(F)F)cc1F)NC(=O)c1ccc(OCCC(F)(F)F)cc1 | 203 to 205 °C
Cc1nc(=O)[nH]c2cc3c(cc12)OCO3 | 310 to 312 °C
CCC1=CC(c2cccc([N+](=O)[O-])c2)C2=C(CCCC2=O)N1 (stereo unspecified) | 182 to 184 °C
Cn1c2cc(OCCO)ccc2c2c3c(c(-c4ccccc4Cl)cc21)C(=O)NC3=O | 309 to 312 °C
CC(C)COC(=O)Nc1cccc(-c2ccnc3c(Br)cnn23)c1 | 90 to 92 °C
ClC(Cl)(Cl)c1nc(-c2ccc(OCCCn3ccnc3)cc2)no1 | 102 to 103 °C

Compound | melting point
O=c1c2cc(F)ccc2[nH]c(=S)n1-c1ccccc1Cl | 295 to 297 °C
CCOC(=O)c1c(N2CCN(C(=O)c3cccs3)CC2)c2cccnc2n(CCN(C)C)c1=O | 134 °C
CC(CCCCCOCCc1ccccc1)NCC(O)c1ccc2c(n1)COC(c1ccccc1)O2 (stereo unspecified) | 61 to 67 °C
CCc1ccc2c(c1)OC1(O)c3ccccc3C(=O)C21O (stereo unspecified) | 168 to 169 °C
O=C(O)COc1ccc(OCC(=O)O)c(NC(=O)c2ccc(OCCCCc3ccccc3)cc2)c1 | 211 to 214 °C
CCC1N=C(c2ccccc2Cl)c2cc(CC(=O)OC)sc2NC1=S (stereo unspecified) | 199 to 200 °C
COc1ccc2c3c1CCCC3C(CN1CCN(C)CC1)CC2 (stereo unspecified) | 115 to 116 °C
COC(=O)C(Cc1ccc(OCCc2nc(-c3ccccc3)oc2C)cc1)C(=O)O (stereo unspecified) | 126 to 127 °C
N#CCSC(=S)SCCc1ccccc1 | 72 to 73 °C
Cc1oc(-c2ccccc2)nc1CCOc1ccc(C=O)c2sccc12 | 154 °C
CC1(C)CSCC(=O)N1 | 151 to 152 °C
CCNc1nc(N)c(SC)c(Cl)n1 | 124 °C
O=C(Nc1cnc2c(c1)nc1n2CCC1O)c1cc2cc(C(F)(F)F)ccc2n1Cc1cccc(F)c1 (stereo unspecified) | 267 to 268 °C
c1c(N2CCCC2)nc(NC23CC4CC(CC(C4)C2)C3)nc1N1CCNCC1 | 160 to 164 °C
CCCCCCCCCCCCCCCCC[C@H](O)C[C@@H]1OC(=O)[C@H]1CC | 80 to 82 °C
O=C(Nc1ccc(Oc2ccnc(NCC3CCCO3)n2)c2ccccc12)c1cc(F)cc(N2CCOCC2)c1 (stereo unspecified) | 103 to 105 °C
CCONC(=O)c1cc(NC(C)=C2C(=O)OC(=O)C(C(C)=O)=C2O)cc(C(=O)NOCC)c1 | 234 to 235 °C
CCC(=O)OCC(=O)C1(OC(=O)CC)CCC2C3CC(C)C4=CC(=O)C=CC4(C)C3C(O)CC21C (stereo unspecified) | 126 °C
COc1cc(NC(=S)Nc2ccccc2)ccc1NNC=O | 183 to 184 °C

Compound | melting point
CCn1nc(-c2ccc(OC)c(F)c2)c(-c2ccc(OC)cc2)cc1=O | 123 to 124 °C
CC(C)(C)[C@@H]1OC(=O)[C@@H]2[C@H]1C2(C)C | 113 °C
OCc1cccc(Oc2nn(Cc3ccccc3)c3ccccc23)n1 | 156 to 158 °C
COc1ccc2nc(NC(=O)C(CC3CCCC3)c3ccc(S(=O)(=O)NC4CC4)cc3)sc2n1 (stereo unspecified) | 235 to 237 °C
FC(F)(F)C1(c2cc(Cl)cc(Cl)c2)CC(c2ccc(Br)cc2)=NO1 (stereo unspecified) | 122 to 124 °C
CCOC(=O)c1cc(O)ccc1CCc1cc2cc(C#N)ccc2o1 | 133 to 135 °C
O=Cc1ccc2c(ccc3cc4ccccc4cc32)c1 | 144 to 145 °C
CN(C)Cc1c(-c2ccc(OC(F)F)c(OC3CC3)c2)[nH]c2cn[nH]c(=O)c12 | 154 to 157 °C
O=C(NCCOc1ccc(CC(Oc2ccccc2)C(=O)O)cc1[N+](=O)[O-])c1ccc(-c2ccccn2)cc1 (stereo unspecified) | 178 to 179 °C
CCOC(=O)c1cn(CCCl)c2nc(N3CCN(C(=O)OCC)CC3)c(F)cc2c1=O | 143 to 144 °C
CNc1nnc(S[Si](C)(C)C)s1 | 80 to 82 °C
NC(=O)c1c(Cl)c(-c2ccccc2)n2c1CN(S(=O)(=O)c1cccc(C(F)(F)F)c1)CC2 | 158 to 159 °C
CN1CCN(c2cc3c(cc2F)c(=O)c(C(=O)O)cn3C2CC2)CC1c1ccsc1 (stereo unspecified) | 230 °C
O=C1Nc2ccc(F)cc2C1c1ncnc2c1cnn2C1CCCC1 (stereo unspecified) | 254 to 257 °C
COc1cc(C2CC(=O)OC(=O)C2)cc2c(C)c(C)oc12 | 194 to 195 °C
CNC(=S)NS(=O)(=O)c1cc(CCNC(=O)C=Cc2cccs2)ccc1OCC1CCCO1 (stereo unspecified) | 78 °C
COC(=O)COc1cccc2c1cc(C)n2Cc1cccc(-c2ccccc2)c1 | 99 to 102 °C
CCSc1cc(C)nc(SCC)c1NC(=O)CN1CCN(CCSc2nc3cccc([N+](=O)[O-])c3o2)CC1 | 50 to 52 °C
O=S(=O)(NCc1ccnc2c(Cl)cccc12)c1ccc(-c2ccc(C(F)(F)F)cc2C(F)(F)F)cc1 | 184 to 185 °C

Further lines, results first:

melting point | Compound
162 to 164 °C | C=CCOc1ccc(NC(=O)CC(C#N)=C(C)O)cc1
63 to 65 °C | CS(=O)c1ccc(COS(C)(=O)=O)cc1 (stereo unspecified)
73 to 74 °C | COC(CO)(OC)C1(c2ccc(Cl)cc2)CCC1
157 to 158 °C | Cc1nn(-c2cc(O)c(Cl)cc2F)c(C)c1[N+](=O)[O-]
171 °C | O=C(C=Cc1cccc(NS(=O)(=O)/C=C/c2ccccc2)c1)NO
155 to 157 °C | O=C1CC2(CCCC2)CC(=O)N1CCCCc1ccncc1
226 to 227 °C | CCCCn1c(=O)[nH]c2cccc(OCC3CO3)c21 (stereo unspecified)
145 to 146 °C | CCn1cc(C(=O)O)c(=O)cc1-c1cccc(N)c1
69 to 71 °C | CCOC(=O)CC(C#N)(CC(=O)OCC)c1ccc(Cl)c(Cl)c1
238 to 240 °C | O=C(CNc1ccc(F)c(F)c1)Nc1c(Cl)ccc2nc(N3CC[C@@H](O)C3)ccc12
101 to 102 °C | CC(=O)c1ccc(Cl)nc1
277 to 280 °C | Nc1cc2c(Nc3ccc(Cl)c(Cl)c3)ncnc2cn1
62 to 63 °C | COC(=O)c1ccc2c(c1)OC(C)(C)C(=O)N2C(C)C
223 to 224 °C | Cc1onc(-c2ccccc2)c1-c1csc(N)n1
164 to 165 °C | CN(C)N=Cc1cn(C)nc1-c1ccc([N+](=O)[O-])o1
203 to 205 °C | COc1ncc(-c2cc(C=CC(=O)c3ccc(C(=O)O)cc3)c(OC)cc2OC)c(OC)n1
209 to 210 °C | COc1ccc(OC)c(C=CC(=O)Nc2cnc3c(C)cc(C)cc3c2-c2ccccc2Cl)c1
266 to 268 °C | CCCC(=O)c1cnc2c(OC)cccc2c1Nc1ccc(O)c(F)c1
215 °C | CN(C)c1cccc(C(=O)Nc2ccc3ccc(Cl)nc3n2)c1
123 to 129 °C | COC(=O)c1ccc(S(C)(=O)=O)c(C=NO)c1C
120 to 121 °C | Cc1cc(SCc2cc(-c3ccc(C(F)(F)F)cc3)on2)c(Cl)cc1OCC(=O)O
245 to 246 °C | CC(=O)Nc1ccc2c(c1)cc(C(=O)O)n2Cc1ccc(Cl)c(Cl)c1

melting point | Compound
139 to 140 °C | Cc1oc(-c2ccco2)nc1COc1ccc(C=O)cn1
223 to 224 °C | COc1ccc(C(=O)Oc2ccc(S(N)(=O)=O)cc2)cc1C12CC3CC(CC(C3)C1)C2
60 to 62 °C | CS(=O)(=O)OC1CCc2ccccc2C1 (stereo unspecified)
> 300 °C | Cn1c(NN)nc2ccc(O)cc2c1=O
> 300 °C | O=c1[nH]c2ccccc2n2ccnc12
146 to 148 °C | CN(C(=O)c1ccc(Cn2ncc3ccccc32)cc1)C1CCNCC1
201 to 202 °C | COC(=O)C(CC1(C)C(=O)Nc2ccccc21)NC(=O)c1ccc(Cl)cc1 (stereo unspecified)
254 to 255 °C | O=C(Nc1cc(Cl)cc(Cl)c1)c1cc2ccccc2cc1O
117 to 120 °C | CCOc1nc(C(F)(F)C(F)(F)F)cc(=O)n1-c1cc(O)c(Cl)cc1F
115 to 116 °C | CCN1c2ccccc2N(C(=O)CN(C)C)c2ccccc2S1(=O)=O
195 to 196 °C | Cc1nc(-c2cccc(F)c2)n(-c2ccc(S(N)(=O)=O)cn2)n1
175 to 176 °C | c1ccc2c(c1)sc1nncn12
90 to 91 °C | Cc1cc(OCc2ccccc2)cc(=O)o1
170 to 172 °C | Cc1cccc2[nH]c3c4c(Cl)cccc4nc-3cc12
52 to 53 °C | C/C(=C\c1ccc(Cc2cccnc2)cc1)C(=O)Oc1ccccc1
143 to 145 °C | CCC(Sc1ccc(OC)c(Cl)c1Cl)C(=O)O (stereo unspecified)
63 °C | CC(C)(C)c1ccc(OS(C)(=O)=O)c(C(C)(C)C)c1
169 to 174 °C | Cn1ccc(=O)c(OCc2ccccc2)c1C(O)c1cccnc1 (stereo unspecified)
90 to 91 °C | CN1CCN(c2ccc(NC(=O)C3(C)CC3)cc2C(F)(F)F)C1=O
130 °C | COc1ccccc1-n1c(=O)[nH]c2cccnc21
140 °C | COc1ccc2c(c1)C(c1ccccc1)=Nn1c(C)cnc1C2
179 to 181 °C | Cc1cn2nc(SCc3ccccc3)nc2nc1Cl
